Measurements published in ChEMBL document CHEMBL1142268, “Histone deacetylase inhibitors: from bench to clinic” (J Med Chem, 2008).
Values belong to the compound of their own block, whether it stands above or below them.

What was measured:
[1] = Growth inhibition of human neonatal foreskin fibroblasts cells; assay type: functional, cell-based; conditions: Fibroblast
MM96L = assay: Inhibition of human MM96L cells; assay type: functional, cell-based
Histone deacetylase [2] = assay: Inhibition of human liver HDAC
CCRF-CEM = assay: Inhibition of human CEM cells assessed as viability; assay type: functional, cell-based
Histone deacetylase [3] = assay: Inhibition of HDAC in human CEM cells; assay type: cell-based; conditions: ccrf-cem
SQ20B = assay: Inhibition of human SQ20B cells; assay type: functional, cell-based
Histone deacetylase [4] = assay: Inhibition of HDAC from human HeLa cells; assay type: cell-based
Histone deacetylase 1 [5] = biological target: T1, Histone deacetylase 1 (Homo sapiens, UniProt Q13547)
[6] = Inhibition of mouse SC9 cells; assay type: functional, cell-based
Histone deacetylase 1 [7] = biological target: T1, Histone deacetylase 1; remark: listed apart in the source
Description: Inhibition of human HDAC1

HCT-116 = assay: Inhibition of human HCT116 cells; assay type: functional, cell-based
MCF7 = assay: Inhibition of human MCF7 cells; assay type: functional, cell-based
Histone deacetylase 1 [8] = biological target: T1, Histone deacetylase 1; assay: Inhibition of HDAC1 from human HeLa cells; assay type: cell-based
SK-BR-3 = assay: Antiproliferative activity against human SKBR3 cells; assay type: functional, cell-based

T1 sequence (Q13547 whole entry): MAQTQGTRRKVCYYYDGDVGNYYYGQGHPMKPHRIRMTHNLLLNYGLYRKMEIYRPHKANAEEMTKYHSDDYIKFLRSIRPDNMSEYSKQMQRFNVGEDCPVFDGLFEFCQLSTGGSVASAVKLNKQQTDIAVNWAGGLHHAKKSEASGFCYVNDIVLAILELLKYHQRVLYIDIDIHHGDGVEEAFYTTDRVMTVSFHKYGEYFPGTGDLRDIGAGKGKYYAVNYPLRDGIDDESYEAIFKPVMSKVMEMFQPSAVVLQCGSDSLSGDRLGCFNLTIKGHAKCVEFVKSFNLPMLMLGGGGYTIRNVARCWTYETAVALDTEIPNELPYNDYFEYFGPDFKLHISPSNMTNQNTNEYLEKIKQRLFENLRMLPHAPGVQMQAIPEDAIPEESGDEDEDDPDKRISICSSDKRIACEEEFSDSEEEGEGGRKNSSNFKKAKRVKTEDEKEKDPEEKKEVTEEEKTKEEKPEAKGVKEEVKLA

IC50 (MM96L): 140 nM
SMILES: CN(C)c1ccc(C(=O)N[C@@H](CSCCCC(=O)NO)C(=O)NCc2ccccc2)cc1
IC50 [1]: 350 nM

IC50 (Histone deacetylase [2]): 380 nM
IC50 (CCRF-CEM): 12300 nM
IC50 (Histone deacetylase [3]; read-out: IC50): 1600 nM
SMILES: O=C(CCCCCC[S+]([O-])c1ccc(Cl)cc1)NO (stereo unspecified)

IC50 (Histone deacetylase [2]): 60 nM
IC50 (CCRF-CEM): > 25000 nM
IC50 (Histone deacetylase [3]): 7400 nM
SMILES: O=C(CCCCC[S+]([O-])c1ccccc1)NO (stereo unspecified)

IC50 (CCRF-CEM): 2600 nM
SMILES: O=C(CCCCC[S+]([O-])c1ccc(Cl)cc1)NO (stereo unspecified)

IC50 (SQ20B): 10000 nM
IC50 (Histone deacetylase [4]): 700 nM
SMILES: CN(C)c1ccc(NC(=O)NCCCCCCC(=O)NO)cc1

IC50 (SQ20B): 50000 nM
IC50 (Histone deacetylase [4]): 700 nM
SMILES: CN(C)c1ccc(CNC(=O)NCCCCCCCC(=O)NO)cc1

IC50 (Histone deacetylase 1 [5]): > 100 nM
SMILES: O=C(Cc1ccc(-c2csc(NC(=O)Cc3ccccc3)n2)s1)NO

IC50 [6]: 934000 nM
IC50 (Histone deacetylase 1 [7]): 159 nM
SMILES: O=C(CCCCCCN(CCCc1ccccc1)CCc1ccccc1)NO

IC50 (SQ20B): 50000 nM
IC50 (Histone deacetylase [4]): 800 nM
SMILES: CN(C)c1ccc(CNC(=O)NCCCCC(=O)NO)cc1

IC50 (MM96L): 900 nM
SMILES: O=C(CCCSC[C@H](NC(=O)c1ccc(-c2ccccc2)cc1)C(=O)NCc1ccccc1)NO
IC50 [1]: 2800 nM

IC50 (Histone deacetylase [2]): 180 nM
IC50 (CCRF-CEM): 3400 nM
IC50 (Histone deacetylase [3]; read-out: IC50): 2240 nM
SMILES: CN(C)c1ccc([S+]([O-])CCCCCC(=O)NO)cc1 (stereo unspecified)

IC50 (SQ20B): 50000 nM
IC50 (Histone deacetylase [4]): 1000 nM
SMILES: CN(C)c1ccc(CNC(=O)NCCCCCCC(=O)NO)cc1

IC50 (Histone deacetylase 1 [5]): 2000 nM
IC50 (HCT-116): 600 nM
SMILES: Nc1ccccc1NC(=O)c1ccc(Cn2c(=O)[nH]c3ccccc3c2=O)cc1

IC50 (Histone deacetylase [2]): 260 nM
IC50 (CCRF-CEM): > 25000 nM
IC50 (Histone deacetylase [3]): > 25000 nM
SMILES: O=C(CCCCCSc1ccc(Cl)cc1)NO

IC50 (MM96L): 600 nM
SMILES: O=C(CCCSC[C@H](NC(=O)c1ccc2ccccc2c1)C(=O)NCc1ccccc1)NO
IC50 [1]: 1140 nM

GI50 (MCF7): 700 nM
SMILES: O=C(NO)c1cnc(N2CCC(NS(=O)(=O)c3ccc4ccccc4c3)CC2)s1

IC50 (SQ20B): 25000 nM
IC50 (Histone deacetylase [4]): 800 nM
SMILES: CN(C)c1ccc(CNC(=O)NCCCCCC(=O)NO)cc1

IC50 [6]: 52000 nM
SMILES: O=C(CCCCCC(=O)N(CC(=O)Nc1cccc2cccnc12)CC(=O)Nc1cccc2cccnc12)NO

IC50 (Histone deacetylase [2]): 120 nM
IC50 (CCRF-CEM): > 25000 nM
IC50 (Histone deacetylase [3]; read-out: IC50): 9400 nM
SMILES: O=C(CCCCCSc1ccccc1)NO

IC50 [6]: 46000 nM
SMILES: O=C(CCCCCC(=O)N(CC(=O)Nc1ccccc1)CC(=O)Nc1cccc2cccnc12)NO

IC50 (MM96L): 200 nM
SMILES: O=C(CCCSC[C@H](NC(=O)c1ccc(Br)cc1)C(=O)NCc1ccccc1)NO
IC50 [1]: 830 nM

IC50 [6]: 50000 nM
SMILES: O=C(CCCCCC(=O)N(CC(=O)Nc1nc2ccccc2s1)CC(=O)Nc1nc2ccccc2s1)NO

IC50 (Histone deacetylase 1 [8]): 3400 nM
IC50 (Histone deacetylase 1 [7]): 480 nM
SMILES: CC(=O)CCCCC[C@H](NC(=O)c1cnns1)C(=O)NCCc1c(-c2ccccc2)[nH]c2ccccc12

IC50 (Histone deacetylase 1 [8]): 230 nM
IC50 (Histone deacetylase 1 [7]): 18 nM
SMILES: COc1ccc2[nH]c(C)c(CN[C@@H](CCCCCC(C)=O)C(=O)Nc3cccc(-c4ccccc4)c3)c2c1

IC50 (Histone deacetylase 1 [5]): 600 nM
IC50 (HCT-116): 100 nM
SMILES: COc1ccc(-c2ccnc(NCc3ccc(C(=O)Nc4ccccc4N)cc3)n2)cn1

IC50 [6]: 555000 nM
IC50 (Histone deacetylase 1 [7]): 36.5 nM
SMILES: O=C(CCCCCCC(=O)N1CCN(c2ccc(Cl)cc2)CC1)NO

IC50 [6]: 317000 nM
IC50 (Histone deacetylase 1 [7]): 13 nM
SMILES: O=C(CN(CCCCCCC(=O)Nc1ccccc1)CC(=O)Nc1ccccc1)NO

IC50 (SK-BR-3): 800 nM
SMILES: O=C(CCCCCCC(=O)Nc1ccccc1)NO [VORINOSTAT]

IC50 (Histone deacetylase [2]): 110 nM
IC50 (CCRF-CEM): > 25000 nM
IC50 (Histone deacetylase [3]; read-out: IC50): 9400 nM
SMILES: O=C(CCCCCSc1ccc(NS(=O)(=O)c2ccc(Cl)cc2)cc1)NO

IC50 (Histone deacetylase 1 [8]): 720 nM
IC50 (Histone deacetylase 1 [7]): 55 nM
SMILES: CC(=O)CCCCC[C@H](Nc1cncs1)C(=O)Nc1cccc(-c2ccccc2)c1

IC50 (MM96L): 130 nM
SMILES: O=C(CCCSC[C@H](NC(=O)c1cc2ccccc2[nH]1)C(=O)NCc1ccccc1)NO
IC50 [1]: 800 nM

IC50 (MM96L): 200 nM
SMILES: O=C(/C=C/c1ccccc1)N[C@@H](CSCCCC(=O)NO)C(=O)NCc1ccccc1
IC50 [1]: 800 nM

IC50 (Histone deacetylase [2]): 40 nM
IC50 (CCRF-CEM): > 25000 nM
IC50 (Histone deacetylase [3]; read-out: IC50): 15500 nM
SMILES: O=C(CCCCCS(=O)(=O)c1ccccc1)NO
